# Source: US20220135678A1, “METHODS AND COMPOSITIONS TO IMPROVE THE SAFETY AND EFFICACY OF CELLULAR THERAPIES” (University of Southern California, priority 2019, published 2022)
# Key:
# CD19 (on RAJI cells) [1] = biological target: CD19 (on RAJI cells) (UniProt P15391); assay: cell-based or functional assay
# CD19 (on RAJI cells) [2] = biological target: CD19 (on RAJI cells) (UniProt P15391); assay: cell surface staining of control RAJI cells with FMC63 antibody, flow cytometry
# [3] = tested on: NALM6 (B cell acute lymphocytic leukemia cells); assay: Infection of NALM6 cells by lentivirus encoding a non-FMC63 CD19 CAR; type: cell-based; settings: CAR scFV derived from an antibody other than FMC63
# Method: The experiment in the preceding example is repeated using a lentiviral vector encoding a CD19 CAR (SEQ ID NO: 11920) comprising a scFV derived from an antibody other than FMC63 as its antigen-binding domain. The CAR is cloned in the pCCLc-MNDU3-WPRE lentiviral vector (SEQ ID NO: 3) and the resulting vector is packaged using VSVG as described in the preceding example. […] In contrast, incubation with Rituximab, a CD20 antibody, had no effect.
# [4] = tested on: CD33 on hematopoietic stem cells and progenitor cells; assay: HSPC expressing AMR-dTAG or AMR-ShieldTag targeting CD33, in vitro; type: cell-based
# [5] = tested on: Molm14 AML leukemia cells; assay: AMR-dTAG or AMR-ShieldTag HSPC transplanted into NSG mice with Molm14 cells, CD33 CAR-T; type: in vivo
# Excerpt: (§1) The transduced cells are also transplanted into NSG mice along with Molm14 AML leukemia cells.
# as §1
# [6] = tested on: CD19 on RAJI (CD19+) cells; assay: CD19 surface expression on transduced RAJI cells, flow cytometry with PE-conjugated FMC63 antibody (antigen masking); type: cell-based
# Excerpt: A panel of CARs targeting CD19 were generated using antigen binding domains derived from FMC63 (SEQ ID NO: 205), hu-mROO5-1 (SEQ ID NO: 211) and CD19-MM (SEQ ID NO: 209) scFVs respectively. […] The constructs also co-expressed a puromycin resistance gene (PAC). The lentiviral vectors encoding the different CAR constructs were used to infect RAJI (CD19+) cells. The cells were selected with puromycin. Flow cytometry with PE-conjugated FMC63 antibody was used to detect the expression of CD19 on the surface of the CAR-expressing cells.
# In another exemplary experiment, the experiment is repeated with lentiviral vectors encoding FMC63- or hum-mROO5-1-based cTCR, Ab-TCR, TFPαβ and TFPγδ.
# RAJI cells were infected with the following lentiviral vectors encoding antigen masking receptors targeting CD19 and carrying protein degradation motifs FKBP12. […] RAJI cells were selected with puromycin and examined for CD19 expression by cell surface staining with FMC63 antibody. […] Subsequently, the cells were treated with dTAG-13 (100 nM) for 24-72 h to induce degradation of the AMR.
# RAJI cells = assay: Killing of AMR-expressing RAJI cells by CD19-CAR-T cells or Blinatumomab; type: cell-based; settings: exposure to dTAG-13
# Method: T cells mediated induction of lysis of target cells was assayed by increase of luciferase activity as measured by BioTek synergy plate reader by directly injecting 0.5×CTZ assay buffer containing native coeloentrazine (Nanaolight).
# [7] = Patient with cytokine release syndrome and neurological complications after haploidentical stem cell transplant; type: in vivo, human
# Method: A patient with myelofibroris receives haploidentical peripheral blood stem cell transplant using their child as a donor. The patient receives reduced intensity conditioning with Melphalan (100 mg/m2 on day −6), Fludarabine (25 mg/m2×4 on days −5 to −2) and total body irradiation (TBI) of 200 cGy on day −1. Following infusion of haploidentical stem cells on Day 0, the patient receives post-transplant Cyclophosphamide 50 mg/kg×2 on days+3 and +4 and intravenous hydration with normal saline at rate of 250 ml/h for 24 hours after the completion of cyclophosphamide.
# UniProt P15391, sequence (P15391 20-556 limits assumed): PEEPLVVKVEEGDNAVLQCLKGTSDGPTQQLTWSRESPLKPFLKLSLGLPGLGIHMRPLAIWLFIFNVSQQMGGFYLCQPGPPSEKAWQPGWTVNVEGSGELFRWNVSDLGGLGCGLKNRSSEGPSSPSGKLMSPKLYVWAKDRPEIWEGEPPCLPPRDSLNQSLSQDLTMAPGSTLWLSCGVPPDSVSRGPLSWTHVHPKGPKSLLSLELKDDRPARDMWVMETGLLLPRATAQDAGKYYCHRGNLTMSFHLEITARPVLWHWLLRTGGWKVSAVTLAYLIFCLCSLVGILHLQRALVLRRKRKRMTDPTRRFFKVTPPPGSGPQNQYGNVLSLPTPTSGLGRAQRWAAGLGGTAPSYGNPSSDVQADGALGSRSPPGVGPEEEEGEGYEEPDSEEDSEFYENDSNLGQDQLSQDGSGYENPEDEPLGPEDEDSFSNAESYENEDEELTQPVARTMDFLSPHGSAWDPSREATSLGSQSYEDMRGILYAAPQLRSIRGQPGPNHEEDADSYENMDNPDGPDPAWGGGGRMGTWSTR
compound,measurement,setting,value
isotype control mouse IgG (antibody),% EGFP + RAJI Cells (infection with CD19 CAR lentivirus after incubation with Control IgG-PE),CD19 (on RAJI cells) [1],29.6%
same,% EGFP + RAJI Cells (infection with CD19 CAR lentivirus after incubation with control IgG),CD19 (on RAJI cells) [1],43.3%
same,% EGFP + RAJI Cells (infection with the negative control MSLN-237-HL mesothelin CAR lentivirus after incubation with Control IgG-PE),CD19 (on RAJI cells) [1],20.4%
FMC63-PE mouse monoclonal antibody,% of control RAJI cells stained for CD19 by FMC63 antibody,CD19 (on RAJI cells) [2],99.2%
Rituximab: a CD20 antibody,infection of NALM6 by the CD19 CAR (SEQ ID NO: 11920),[3],no effect
CC[C@H](C(=O)N1CCCC[C@H]1C(=O)O[C@H](CCc1ccc(OC)c(OC)c1)c1cccc(OCCN2CCOCC2)c1)c1cc(OC)c(OC)c(OC)c1 [Shield-1],"AMR fusion protein after ligand treatment is stopped, in vitro",[4]; Shield-1 treatment stopped,degradation of AMR fusion protein
same,CD33 AMR-ShieldTag fusion protein in animals after ligand treatment is stopped,[5]; Shield-1 treatment stopped,degradation of the CD33 AMR-ShieldTag fusion protein
CC[C@H](C(=O)N1CCCC[C@H]1C(=O)O[C@H](CCc1ccc(OC)c(OC)c1)c1ccccc1OCC(=O)NCCCCCCOc1cccc2c1C(=O)N(C1CCC(=O)NC1=O)C2=O)c1cc(OC)c(OC)c(OC)c1 (some centres unmarked) [dTAG-13],induction of CD19 expression with increasing concentration,[6]; 1 pM to 100 nM,dose dependent induction
same,CD19 expression on AMR-expressing RAJI cells after ligand,"[6]; 100 nM for 24-72 h, FMC63-PE staining, before treatment […]",68.98%
same,AMR fusion protein after ligand treatment in vitro,[4]; 100 nM,degradation of AMR fusion protein
same,AMR-dTAG fusion protein in animals after ligand,[5]; 25 mg/kg daily,degradation of the AMR-dTAG fusion protein
same,killing of AMR-expressing RAJI cells by CD19-CAR-T cells or Blinatumomab upon exposure to ligand,RAJI cells,sensitized
Tocilizumab: administered 600 mg i.v. for cytokine release syndrome,blood pressure,"[7]; 600 mg i.v. on day 5 after transplantation, patient with CRS after haploidentical stem cell transplant",stabilization of blood pressure
same,neurological / mental status,[7]; after Tocilizumab 600 mg i.v. on day 5 after transplantation,continues to have neurological deterioration
